From patent US7629367B2, “N-(2-benzyl)-2-phenylbutanamides as androgen receptor modulators” (Merck & Co., Inc., priority 2004, dated 2009)

Molecular target: T1, androgen receptor (Homo sapiens, UniProt P10275)
T1 sequence (P10275 1-920): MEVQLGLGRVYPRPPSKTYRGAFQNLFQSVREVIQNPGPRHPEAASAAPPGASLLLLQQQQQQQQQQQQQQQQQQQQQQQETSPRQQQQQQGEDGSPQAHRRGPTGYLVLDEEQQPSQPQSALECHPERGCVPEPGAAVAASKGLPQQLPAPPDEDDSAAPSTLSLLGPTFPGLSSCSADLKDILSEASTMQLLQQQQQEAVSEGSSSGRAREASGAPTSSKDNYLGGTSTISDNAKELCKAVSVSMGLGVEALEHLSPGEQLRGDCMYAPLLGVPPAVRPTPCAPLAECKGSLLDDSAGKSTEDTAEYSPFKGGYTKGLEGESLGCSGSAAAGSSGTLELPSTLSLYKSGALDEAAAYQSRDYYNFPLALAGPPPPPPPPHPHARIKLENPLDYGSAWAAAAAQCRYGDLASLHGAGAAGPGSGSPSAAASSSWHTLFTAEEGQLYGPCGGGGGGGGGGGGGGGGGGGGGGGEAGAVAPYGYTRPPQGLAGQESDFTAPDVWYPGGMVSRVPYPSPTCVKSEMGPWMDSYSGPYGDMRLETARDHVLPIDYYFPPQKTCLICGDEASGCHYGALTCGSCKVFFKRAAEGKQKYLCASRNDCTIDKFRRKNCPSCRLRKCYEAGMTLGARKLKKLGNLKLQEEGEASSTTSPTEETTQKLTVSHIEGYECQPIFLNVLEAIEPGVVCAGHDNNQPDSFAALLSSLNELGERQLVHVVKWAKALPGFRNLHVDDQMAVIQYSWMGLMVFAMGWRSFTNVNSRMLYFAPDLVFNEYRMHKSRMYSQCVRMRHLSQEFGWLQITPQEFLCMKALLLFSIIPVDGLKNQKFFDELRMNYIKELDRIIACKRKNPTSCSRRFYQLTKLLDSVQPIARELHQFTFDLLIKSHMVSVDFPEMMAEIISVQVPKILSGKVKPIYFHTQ
Experiment: biochemical assays (not further specified)
Conditions: compound coupled from the second-peak acid (RT=21 min)

activity in the biochemical assays: active
Structure (SMILES): Cc1cnc(F)c(CNC(=O)C(O)(c2ccccc2)C(F)(F)C(F)(F)F)c1 (single isomer, unassigned) [Example 3-2, (2R or 2S)-3,3,4,4,4-pentafluoro-N-[(2-fluoro-5-methylpyridin-3-yl)methyl]-2-hydroxy-2-phenylbutanamide]
